Laboratory results: article PMC10003360, “Antiviral Effect of Ginsenosides rk1 against Influenza a Virus Infection by Targeting the Hemagglutinin 1-Mediated Virus Attachment” (International Journal of Molecular Sciences, 2023)

Molecular target: T1, HA1 (Influenza A virus (A/Puerto Rico/8/1934(H1N1)), UniProt P03452)
T1 construct: gene HA; HA1 subunit alone, cut from precursor HA0; purchased from Sino Biological; immobilised on sensor chip
Assay: biochemical
Format: binding

T1 sequence (P03452 18-342 limits assumed): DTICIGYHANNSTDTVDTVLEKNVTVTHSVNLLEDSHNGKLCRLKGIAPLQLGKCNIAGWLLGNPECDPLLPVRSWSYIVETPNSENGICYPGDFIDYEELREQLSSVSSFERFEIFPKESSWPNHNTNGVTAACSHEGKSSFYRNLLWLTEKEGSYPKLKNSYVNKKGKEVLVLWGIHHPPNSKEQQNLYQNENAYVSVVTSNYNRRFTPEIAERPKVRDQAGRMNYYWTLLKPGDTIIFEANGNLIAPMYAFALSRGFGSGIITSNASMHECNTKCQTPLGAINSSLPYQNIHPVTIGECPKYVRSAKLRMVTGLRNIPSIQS

C=C(CCC=C(C)C)[C@H]1CC[C@]2(C)[C@@H]1[C@H](O)C[C@@H]1[C@@]3(C)CC[C@H](O[C@@H]4O[C@H](CO)[C@@H](O)[C@H](O)[C@H]4O[C@@H]4O[C@H](CO)[C@@H](O)[C@H](O)[C@H]4O)C(C)(C)[C@@H]3CC[C@]12C [G-rk1, ginsenoside rk1]
Kd: 93.3 nM
